In ChEMBL document CHEMBL1201862, “PubChem BioAssay data set” (2004):
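Protocol summary: plate cells (96-well), add compound at 5 concentrations, incubate 48 h, interpolate endpoints linearly. GI50 is the concentration that inhibits growth by half.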 Calls of active or inactive are those of the source. Cut-off read from the data, not from the text of the source: active = GI50 up to about 1.1 µM and inactive = higher.

How the values were obtained:
Test in all cases: inhibition of tumour cell growth, NCI panel, 48 h
SF-539 = test system: SF-539
RXF 393 = test system: RXF 393
SNB-75 = test system: SNB-75
HOP-92 = test system: HOP-92
NCI/ADR-RES = test system: NCI/ADR-RES
U-251 = test system: U-251
786-0 = test system: 786-0
SK-MEL-5 = test system: SK-MEL-5
IGROV-1 = test system: IGROV-1
Malme-3M = test system: Malme-3M
NCI-H226 = test system: NCI-H226
SK-MEL-2 = test system: SK-MEL-2
M14 = test system: M14
KM12 = test system: KM12
NCI-H522 = test system: NCI-H522
HOP-62 = test system: HOP-62
CCRF-CEM = test system: CCRF-CEM
SK-OV-3 = test system: SK-OV-3
K562 = test system: K562
CAKI-1 = test system: CAKI-1

SMILES	GI50 (SF-539)	GI50 (RXF 393)	GI50 (SNB-75)	GI50 (HOP-92)	GI50 (NCI/ADR-RES)	GI50 (U-251)	GI50 (786-0)	GI50 (SK-MEL-5)	GI50 (IGROV-1)	GI50 (Malme-3M)	GI50 (NCI-H226)	GI50 (SK-MEL-2)	GI50 (M14)	GI50 (KM12)	GI50 (NCI-H522)	GI50 (HOP-62)	GI50 (CCRF-CEM)	GI50 (SK-OV-3)	GI50 (K562)	GI50 (CAKI-1)
O=C(Cn1cc(Br)c(=O)[nH]c1=O)c1ccc(-c2ccccc2)cc1	8.41 µM (inactive)	63 µM (inactive)	1.85 µM (inactive)	6.89 µM (inactive)	13 µM (inactive)	5.31 µM (inactive)	10.5 µM (inactive)	> 15.6 µM (inactive)	15.7 µM (inactive)	> 26.5 µM (inactive)	17 µM (inactive)	> 12.4 µM (inactive)	> 15.1 µM (inactive)	> 14.6 µM (inactive)	5.57 µM (inactive)	5.12 µM (inactive)	> 12.6 µM (inactive)	> 58.6 µM (inactive)	> 11.2 µM (inactive)	6 µM (inactive)
O=C(Cc1csc2[n+]1C(=O)/C(=C/c1ccc(Cl)cc1)S2)Nc1ccccc1	27.8 µM (inactive)	18.3 µM (inactive)	23.5 µM (inactive)	26.6 µM (inactive)	21.7 µM (inactive)	16.2 µM (inactive)	25.1 µM (inactive)	10.9 µM (inactive)	16.9 µM (inactive)	30.1 µM (inactive)	15.6 µM (inactive)	17.9 µM (inactive)	28.1 µM (inactive)	22.5 µM (inactive)	15.3 µM (inactive)	2.01 µM (inactive)	23.8 µM (inactive)	19.4 µM (inactive)	21.7 µM (inactive)	28.1 µM (inactive)
Cc1c(CNc2ccc(C(=O)NC(CCCNC(=O)c3ccccc3C(=O)O)C(=O)O)cc2)cnc2nc(N)nc(N)c12 (stereo not given)	0.000461 µM (active)	0.382 µM (active)	0.00222 µM (active)	2.09 µM (inactive)	0.000298 µM (active)	0.00358 µM (active)	< 0.0001 µM (active)	0.000644 µM (active)	0.000518 µM (active)	0.468 µM (active)	0.000617 µM (active)	1.22 µM (inactive)	0.000656 µM (active)	0.000521 µM (active)	0.00151 µM (active)	0.387 µM (active)	0.00057 µM (active)	0.00644 µM (active)	< 0.0001 µM (active)	0.001 µM (active)
CCCCCCC/C=C1\CCC(CN(C)C)C1=O (stereo not given)	16.6 µM (inactive)	5.93 µM (inactive)	18.5 µM (inactive)	17.3 µM (inactive)	2.61 µM (inactive)	17.5 µM (inactive)	1.76 µM (inactive)	18.7 µM (inactive)	19.1 µM (inactive)	10.8 µM (inactive)	22.4 µM (inactive)	15.9 µM (inactive)	9.71 µM (inactive)	4.07 µM (inactive)	5.48 µM (inactive)	17.6 µM (inactive)	3.03 µM (inactive)	23.7 µM (inactive)	2.83 µM (inactive)	16.3 µM (inactive)
N=C(N)NS(=O)(=O)c1ccc(Nc2c3ccccc3nc3c(C(=O)NCCO)cccc23)cc1	0.193 µM (active)	0.173 µM (active)	22.6 µM (inactive)	0.192 µM (active)	0.296 µM (active)	0.184 µM (active)	0.191 µM (active)	0.142 µM (active)	0.141 µM (active)	0.156 µM (active)	0.142 µM (active)	0.199 µM (active)	0.183 µM (active)	0.177 µM (active)	0.158 µM (active)	0.186 µM (active)	0.416 µM (active)	0.236 µM (active)	0.216 µM (active)	0.205 µM (active)
CC(C)=CCC/C(C)=C/CC/C(C)=C/CC/C(=C/CC/C(C)=C\CC/C(C)=C/CC/C(C)=C/CC/C(C)=C/Cc1cc(O)ccc1O)CO	0.824 µM (active)	0.483 µM (active)	4.02 µM (inactive)	9.59 µM (inactive)	4.51 µM (inactive)	3.08 µM (inactive)	2.98 µM (inactive)	2.48 µM (inactive)	2.86 µM (inactive)	2.7 µM (inactive)	2.29 µM (inactive)	3.32 µM (inactive)	0.681 µM (active)	1.67 µM (inactive)	1.57 µM (inactive)	11.3 µM (inactive)	3.56 µM (inactive)	10.9 µM (inactive)	17.7 µM (inactive)	1.71 µM (inactive)
CN(C)c1nc2sc3c(c2c(=O)o1)CCCC3	43.3 µM (inactive)	15.5 µM (inactive)	30.1 µM (inactive)	36.9 µM (inactive)	43 µM (inactive)	32.7 µM (inactive)	45.4 µM (inactive)	23.8 µM (inactive)	72.8 µM (inactive)	25.9 µM (inactive)	15.3 µM (inactive)	25.3 µM (inactive)	40.1 µM (inactive)	21.6 µM (inactive)	25.4 µM (inactive)	25.6 µM (inactive)	39.4 µM (inactive)	31.6 µM (inactive)	32.4 µM (inactive)	35.3 µM (inactive)
COc1cc(/C=C/C(=O)Oc2ccc(NC(C)=O)cc2)ccc1C(=O)OCc1ccccc1	36.3 µM (inactive)	28.8 µM (inactive)	20 µM (inactive)	74.3 µM (inactive)	> 100 µM (inactive)	41 µM (inactive)	39.6 µM (inactive)	> 100 µM (inactive)	67.5 µM (inactive)	> 93.5 µM (inactive)	> 100 µM (inactive)	53.1 µM (inactive)	> 100 µM (inactive)	> 100 µM (inactive)	> 85.9 µM (inactive)	53.8 µM (inactive)	64.3 µM (inactive)	48.4 µM (inactive)	> 100 µM (inactive)	> 93.3 µM (inactive)
Brc1sc(Br)c2c1[C@H](Br)C[C@@H]2Br	19.1 µM (inactive)	0.0689 µM (active)	30.1 µM (inactive)	21.5 µM (inactive)	23 µM (inactive)	36.6 µM (inactive)	29.9 µM (inactive)	57.1 µM (inactive)	26.9 µM (inactive)	23.9 µM (inactive)	23.1 µM (inactive)	24.6 µM (inactive)	29.2 µM (inactive)	44.9 µM (inactive)	16.3 µM (inactive)	64.9 µM (inactive)	31.1 µM (inactive)	59.8 µM (inactive)	39.4 µM (inactive)	33.8 µM (inactive)
Cc1ccc2c(c1)/C(=N/Nc1ccccc1[N+](=O)[O-])C(=O)N2	2.11 µM (inactive)	6.52 µM (inactive)	5.33 µM (inactive)	2.92 µM (inactive)	3.72 µM (inactive)	4.07 µM (inactive)	2.11 µM (inactive)	7.35 µM (inactive)	1.68 µM (inactive)	3.48 µM (inactive)	8.41 µM (inactive)	> 100 µM (inactive)	81.5 µM (inactive)	4.19 µM (inactive)	2.31 µM (inactive)	2.82 µM (inactive)	87.1 µM (inactive)	4.68 µM (inactive)	27.9 µM (inactive)	3.32 µM (inactive)
CN(C)CCCCN1c2ccccc2Sc2ccc(N=[N+]=[N-])cc21	5.05 µM (inactive)	4.06 µM (inactive)	2.62 µM (inactive)	3.56 µM (inactive)	9.98 µM (inactive)	3.13 µM (inactive)	8.69 µM (inactive)	1.67 µM (inactive)	3.08 µM (inactive)	1.76 µM (inactive)	6.11 µM (inactive)	3.08 µM (inactive)	1.67 µM (inactive)	3.15 µM (inactive)	4.09 µM (inactive)	11.5 µM (inactive)	2.69 µM (inactive)	12.9 µM (inactive)	2.05 µM (inactive)	5.62 µM (inactive)
